Ki and IC50 data for 15 molecules are collected here from patent US20180265515A1 (Genentech, Inc., priority 2015, published 2018).

SMILES strings stand for the structures.

Assay [1] addresses T1, isolated recombinant JAK2 kinase domain (Homo sapiens, UniProt O60674).
T1 construct: The activity of the isolated recombinant JAK1 and JAK2 kinase domain was measured
The assay can be described thus: JAK2 enzyme assay (Caliper LabChip, Ki). As to conditions: 25 μM ATP. The assay is classed as biochemical. As to the method: (§1) JAK Enzyme Assays were Carried Out as Follows:
(§2) The activity of the isolated recombinant JAK1 and JAK2 kinase domain was measured by monitoring phosphorylation of a peptide derived from JAK3 (Val-Ala-Leu-Val-Asp-Gly-Tyr-Phe-Arg-Leu-Thr-Thr, fluorescently labeled on the N-terminus with 5-carboxyfluorescein) using the Caliper LabChip® technology (Caliper Life Sciences, Hopkinton, Mass.). […] Reactions were incubated at 22° C. in 384-well polypropylene microtiter plates for 30 minutes and then stopped by addition of 25 μL of an EDTA containing solution (100 mM HEPES buffer (pH 7.2), 0.015% Brij-35, 150 mM EDTA), resulting in a final EDTA concentration of 50 mM. After termination of the kinase reaction, the proportion of phosphorylated product was determined as a fraction of total peptide substrate using the Caliper LabChip® 3000 according to the manufacturer's specifications. Ki values were then determined using the Morrison tight binding model (Morrison, J. F., Biochim. Biophys. Acta. 185:269-296 (1969); William, J. W. and Morrison, J. F., Meth. Enzymol., 63:437-467 (1979)) modified for ATP-competitive inhibition [Ki=Ki,app/(1+[ATP]/Km,app)].

Assay [2] addresses T2, isolated recombinant JAK1 kinase domain (Homo sapiens, UniProt P23458).
T2 construct: The activity of the isolated recombinant JAK1 and JAK2 kinase domain was measured
Put plainly: JAK1 enzyme assay (Caliper LabChip, Ki). As to conditions: recombinant JAK1 kinase domain, 25 μM ATP. The assay is classed as biochemical. As to the method:
as §1, §2

The test system of assay [3] is JAK1-dependent STAT6 phosphorylation downstream of IL-13 stimulation in BEAS-2B human bronchial epithelial cells. The assay can be described thus: JAK1 pathway assay in BEAS-2B cells (IL-13 stimulated STAT6 phosphorylation, MSD). The settings on record: read-out: P-STAT6 BEAS2B + IL13 IC50. In kind it is cell-based. Here is the method: JAK1 Pathway Assay in Cell Lines was Carried Out as Follows:
Inhibitor potency (EC50) was determined in cell-based assays designed to measure JAK1 dependent STAT phosphorylation. As noted above, inhibition of IL-4, IL-13, and IL-9 signaling by blocking the Jak/Stat signaling pathway can alleviate asthmatic symptoms in pre-clinical lung inflammation models (Mathew et al., 2001, J Exp Med 193(9): 1087-1096; Kudlacz et. al., 2008, Eur J. Pharmacol 582(1-3): 154-161).
In one assay approach, TF-1 human erythroleukemia cells obtained from the American Type Culture Collection (ATCC; Manassas, Va.) were used to measure JAK1-dependent STAT6 phosphorylation downstream of IL-13 stimulation. Prior to use in the assays, TF-1 cells were starved of GM-CSF overnight in OptiMEM medium (Life Technologies, Grand Island, N.Y.) supplemented with 0.5% charcoal/dextran stripped fetal bovine serum (FBS), 0.1 mM non-essential amino acids (NEAA), and 1 mM sodium pyruvate. The assays were run in 384-well plates in serum-free OptiMEM medium using 300,000 cells per well. In a second assay approach, BEAS-2B human bronchial epithelial cells obtained from ATCC were plated at 100,000 cells per well of a 96-well plate one day prior to the experiment. The BEAS-2B assay was run in complete growth medium (bronchial epithelial basal medium plus bulletkit; Lonza; Basel, Switzerland).
Test compounds were serially diluted 1:2 in DMSO and then diluted 1:50 in medium just before use. Diluted compounds were added to the cells, for a final DMSO concentration of 0.2%, and incubated for 30 min (for the TF-1 assay) or 1 hr (for the BEAS-2B assay) at 37° C. Then, cells were stimulated with human recombinant cytokine at their respective EC90 concentrations, as previously determined for each individual lot. Cells were stimulated with IL-13 (R&D Systems, Minneapolis, Minn.) for 15 min at 37° C. The TF-1 cell reactions were stopped by the direct addition of 10× lysis buffer (Cell Signaling Technologies, Danvers, Mass.), whereas the BEAS-2B cell incubations were halted by the removal of medium and addition of 1× lysis buffer. The resultant samples were frozen in the plates at −80° C. Compound mediated inhibition of STAT6 phosphorylation was measured in the cell lysates using MesoScale Discovery (MSD) technology (Gaithersburg, Md.). EC50 values were determined as the concentration of compound required for 50% inhibition of STAT phosphorylation relative to that measured for the DMSO control.

T1 sequence (O60674 849-1124 limits assumed): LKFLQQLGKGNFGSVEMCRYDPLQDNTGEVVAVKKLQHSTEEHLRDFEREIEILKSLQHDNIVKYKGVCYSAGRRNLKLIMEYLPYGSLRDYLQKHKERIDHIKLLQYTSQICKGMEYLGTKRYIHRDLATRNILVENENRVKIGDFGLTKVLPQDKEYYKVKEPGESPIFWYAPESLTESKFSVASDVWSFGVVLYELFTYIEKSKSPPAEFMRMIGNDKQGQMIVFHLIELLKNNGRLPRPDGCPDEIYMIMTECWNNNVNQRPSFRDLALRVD
T2 sequence (P23458 875-1153 limits assumed): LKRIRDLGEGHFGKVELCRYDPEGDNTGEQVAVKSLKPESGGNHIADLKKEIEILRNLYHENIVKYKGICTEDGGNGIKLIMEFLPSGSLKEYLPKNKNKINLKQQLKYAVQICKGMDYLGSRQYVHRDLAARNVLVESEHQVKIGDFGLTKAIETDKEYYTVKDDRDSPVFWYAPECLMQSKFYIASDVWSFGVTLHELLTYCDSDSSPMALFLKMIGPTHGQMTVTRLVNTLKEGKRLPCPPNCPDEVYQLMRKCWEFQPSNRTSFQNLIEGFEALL

The Ki is the equilibrium dissociation constant of an inhibitor or competing ligand from its target. A word on the IC50: it is the concentration that inhibits the measured activity by half. For `CSc1ccc(OC(F)F)c(-c2nn(CC(=O)N3CCC(OCC(=O)N4CCN(C)CC4)CC3)cc2NC(=O)c2cnn3cccnc23)c1` [Example 71, N-(3-(2-(difluoromethoxy)-5-(methylthio)phenyl)-1-(2-(4-(2-(4-methylpiperazin-1-yl)-2-oxoethoxy)piperidin-1-yl)-2-oxoethyl)-1H-pyrazol-4-yl)pyrazolo[1,5-a]pyrimidine-3-carboxamide], the Ki in assay [1] is 1.1 nM; in assay [2] it was 0.59 nM. Besides, the IC50 in assay [3] was found to be 83 nM.

In the case of `CC(C)Sc1ccc(OC(F)F)c(-c2nn(CC(=O)N3CCC(N4CCn5cncc5C4)CC3)cc2NC(=O)c2cnn3cccnc23)c1` [Example 139, N-[3-[2-(difluoromethoxy)-5-isopropylsulfanyl-phenyl]-1-[2-[4-(6,8-dihydro-5H-imidazo[1,5-a]pyrazin-7-yl)-1-piperidyl]-2-oxo-ethyl]pyrazol-4-yl]pyrazolo[1,5-a]pyrimidine-3-carboxamide], the Ki was found to be 0.84 nM in assay [1] and 0.51 nM in assay [2]. In assay [3], the IC50 amounted to 140 nM.

On to `CC(C)Sc1ccc(OC(F)F)c(-c2nn(CC(=O)N3CCN(C4CCOCC4)CC3)cc2NC(=O)c2cnn3cccnc23)c1` [Example 125, N-[3-[2-(difluoromethoxy)-5-isopropylsulfanyl-phenyl]-1-[2-oxo-2-(4-tetrahydropyran-4-ylpiperazin-1-yl)ethyl]pyrazol-4-yl]pyrazolo[1,5-a]pyrimidine-3-carboxamide], for which the Ki was found to be 0.94 nM in assay [1] and 0.47 nM in assay [2]. In assay [3], the IC50 stood at 17 nM.

Consider `CC(=O)N1CCN(CC2CCN(C(=O)Cn3cc(NC(=O)c4cnn5cccnc45)c(-c4cc(SC5CC5)ccc4OC(F)F)n3)CC2)CC1` [Example 172, N-[1-[2-[4-[(4-acetylpiperazin-1-yl)methyl]-1-piperidyl]-2-oxo-ethyl]-3-[5-cyclopropylsulfanyl-2-(difluoromethoxy)phenyl]pyrazol-4-yl]pyrazolo[1,5-a]pyrimidine-3-carboxamide], for which the values for the Ki in assay [1] and in assay [2] were 0.91 nM and 0.45 nM, respectively. In addition, in assay [3], the IC50 came to 32 nM.

With `CSc1ccc(OC(F)F)c(-c2nn(CC(=O)N3CCC(CN4CCN(CC(=O)N(C)C)C[C@H]4C)CC3)cc2NC(=O)c2cnn3cccnc23)c1` [Example 87, N-[3-[2-(difluoromethoxy)-5-methylsulfanyl-phenyl]-1-[2-[4-[[(2R)-4-[2-(dimethylamino)-2-oxo-ethyl]-2-methyl-piperazin-1-yl]methyl]-1-piperidyl]-2-oxo-ethyl]pyrazol-4-yl]pyrazolo[1,5-a]pyrimidine-3-carboxamide], the results for the Ki in assay [1] and in assay [2] were 0.61 nM and 0.39 nM, respectively. In addition, in assay [3], the IC50 was 35 nM.

Turning to `CSc1ccc(OC(F)F)c(-c2nn(CC(=O)N3CCC(N4CCS(=O)(=O)CC4)CC3)cc2NC(=O)c2cnn3cccnc23)c1` [Example 62, N-[3-[2-(difluoromethoxy)-5-methylsulfanyl-phenyl]-1-[2-[4-(1,1-dioxo-1,4-thiazinan-4-yl)-1-piperidyl]-2-oxo-ethyl]pyrazol-4-yl]pyrazolo[1,5-a]pyrimidine-3-carboxamide], the Ki in assay [1] was determined as 0.38 nM; in assay [2], 0.27 nM. In addition, in assay [3], the IC50 came out at 160 nM.

Regarding `CSc1ccc(OC(F)F)c(-c2nn(CC(=O)N3CCC(N(C)C4COC4)CC3)cc2NC(=O)c2cnn3cccnc23)c1` [Example 46, N-(3-(2-(difluoromethoxy)-5-(methylthio)phenyl)-1-(2-(4-(methyl(oxetan-3-yl)amino)piperidin-1-yl)-2-oxoethyl)-1H-pyrazol-4-yl)pyrazolo[1,5-a]pyrimidine-3-carboxamide], the Ki in assay [1] turned out to be 0.44 nM; in assay [2] it was 0.25 nM. Besides, in assay [3], the IC50 was determined as 22 nM.

For the molecule `COC(=O)N1CCN(CC2CCN(C(=O)Cn3cc(NC(=O)c4cnn5cccnc45)c(-c4cc(SC5CC5)ccc4OC(F)F)n3)CC2)CC1` [Example 173, methyl 4-[[1-[2-[3-[5-cyclopropylsulfanyl-2-(difluoromethoxy)phenyl]-4-(pyrazolo[1,5-a]pyrimidine-3-carbonylamino)pyrazol-1-yl]acetyl]-4-piperidyl]methyl]piperazine-1-carboxylate], the Ki worked out at 0.83 nM in assay [1] and 0.33 nM in assay [2]. In addition, the IC50 in assay [3] came to 17 nM.

`CSc1ccc(OC(F)F)c(-c2nn(CC(=O)N3CCC(NCC(C)C#N)CC3)cc2NC(=O)c2cnn3cccnc23)c1` (stereo not drawn) [Example 30, N-[1-[2-[4-(2-cyanopropylamino)-1-piperidyl]-2-oxo-ethyl]-3-[2-(difluoromethoxy)-5-methylsulfanyl-phenyl]pyrazol-4-yl]pyrazolo[1,5-a]pyrimidine-3-carboxamide]: the Ki was 0.38 nM in assay [1] and 0.29 nM in assay [2]. Also, the IC50 in assay [3] was 8.7 nM.

`CNCCn1cc(NC(=O)c2cnn3cccnc23)c(-c2cc(SC3COC3)ccc2OC(F)F)n1` [Example 178, N-[3-[2-(difluoromethoxy)-5-(oxetan-3-ylsulfanyl)phenyl]-1-[2-(methylamino)ethyl]pyrazol-4-yl]pyrazolo[1,5-a]pyrimidine-3-carboxamide]: the inhibition constant (Ki) in assay [1] was determined as 0.64 nM; in assay [2], 0.36 nM. Besides, in assay [3], the IC50 was found to be 9 nM.

Take `CSc1ccc(OC(F)F)c(-c2n[nH]cc2NC(=O)c2cnn3cccnc23)c1` [Example 1, N-(3-(2-(difluoromethoxy)-5-(methylthio)phenyl)-1H-pyrazol-4-yl)pyrazolo[1,5-a]pyrimidine-3-carboxamide]: the Ki in assay [1] is 0.041 nM; in assay [2], 0.079 nM. For the same molecule, the IC50 in assay [3] amounted to 2.6 nM.

With `CC(F)(F)CNC1CCN(C(=O)Cn2cc(NC(=O)c3cnn4cccnc34)c(-c3cc(SC4CC4)ccc3OC(F)F)n2)CC1` [Example 169, N-[3-[5-cyclopropylsulfanyl-2-(difluoromethoxy)phenyl]-1-[2-[4-(2,2-difluoropropylamino)-1-piperidyl]-2-oxo-ethyl]pyrazol-4-yl]pyrazolo[1,5-a]pyrimidine-3-carboxamide], the results for the Ki in assay [1] and in assay [2] were 0.8 nM and 0.43 nM, respectively. Also, the IC50 in assay [3] came to 20 nM.

As to `O=C(Nc1c[nH]nc1-c1cc(SC2COC2)ccc1OC(F)F)c1cnn2cccnc12` [Example 175, N-[3-[2-(difluoromethoxy)-5-(oxetan-3-ylsulfanyl)phenyl]-1H-pyrazol-4-yl]pyrazolo[1,5-a]pyrimidine-3-carboxamide], the values for the Ki in assay [1] and in assay [2] were 0.11 nM and 0.23 nM, respectively. Also, the IC50 in assay [3] is 9.5 nM.

For `CSc1ccc(OC(F)F)c(-c2nn(CC(=O)N3CCC(N4CCN(C5COC5)CC4)CC3)cc2NC(=O)c2cnn3cccnc23)c1` [Example 69, N-[3-[2-(difluoromethoxy)-5-methylsulfanyl-phenyl]-1-[2-[4-[4-(oxetan-3-yl)piperazin-1-yl]-1-piperidyl]-2-oxo-ethyl]pyrazol-4-yl]pyrazolo[1,5-a]pyrimidine-3-carboxamide], the Ki in assay [1] worked out at 0.71 nM; in assay [2], 0.35 nM. Also, in assay [3], the IC50 stood at 50 nM.

With `CC(C)Sc1ccc(OC(F)F)c(-c2nn(CC(=O)N3CCN(CCO)CC3)cc2NC(=O)c2cnn3cccnc23)c1` [Example 131, N-[3-[2-(difluoromethoxy)-5-isopropylsulfanyl-phenyl]-1-[2-[4-(2-hydroxyethyl)piperazin-1-yl]-2-oxo-ethyl]pyrazol-4-yl]pyrazolo[1,5-a]pyrimidine-3-carboxamide], the Ki in assay [1] is 0.8 nM; in assay [2] it was 0.41 nM. In addition, the IC50 in assay [3] was determined as 30 nM.
